Experiments:
[1] = biological target: Ribosomal protein S6 kinase alpha-3 (Homo sapiens) (UniProt P51812)
[2] = biological target: T1, Serine/threonine-protein kinase Nek2 (Homo sapiens) (UniProt P51955)
T1 sequence (whole entry): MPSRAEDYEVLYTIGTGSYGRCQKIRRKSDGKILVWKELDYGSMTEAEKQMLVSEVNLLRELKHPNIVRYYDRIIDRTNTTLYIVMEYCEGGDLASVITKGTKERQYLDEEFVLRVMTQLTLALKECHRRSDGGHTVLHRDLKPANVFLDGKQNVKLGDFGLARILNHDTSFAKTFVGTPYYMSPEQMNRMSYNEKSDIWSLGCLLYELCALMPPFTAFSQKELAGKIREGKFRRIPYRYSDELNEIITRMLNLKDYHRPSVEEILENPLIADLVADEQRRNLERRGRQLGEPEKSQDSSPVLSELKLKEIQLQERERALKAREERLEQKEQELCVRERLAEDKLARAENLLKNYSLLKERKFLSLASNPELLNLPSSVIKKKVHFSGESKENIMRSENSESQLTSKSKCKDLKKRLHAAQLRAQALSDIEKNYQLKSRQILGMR

[3] = biological target: Serine/threonine-protein kinase 26 (Homo sapiens) (UniProt Q9P289)
[4] = biological target: T2, Mitogen-activated protein kinase kinase kinase 5 (Homo sapiens) (UniProt Q99683)
T2 sequence (whole entry): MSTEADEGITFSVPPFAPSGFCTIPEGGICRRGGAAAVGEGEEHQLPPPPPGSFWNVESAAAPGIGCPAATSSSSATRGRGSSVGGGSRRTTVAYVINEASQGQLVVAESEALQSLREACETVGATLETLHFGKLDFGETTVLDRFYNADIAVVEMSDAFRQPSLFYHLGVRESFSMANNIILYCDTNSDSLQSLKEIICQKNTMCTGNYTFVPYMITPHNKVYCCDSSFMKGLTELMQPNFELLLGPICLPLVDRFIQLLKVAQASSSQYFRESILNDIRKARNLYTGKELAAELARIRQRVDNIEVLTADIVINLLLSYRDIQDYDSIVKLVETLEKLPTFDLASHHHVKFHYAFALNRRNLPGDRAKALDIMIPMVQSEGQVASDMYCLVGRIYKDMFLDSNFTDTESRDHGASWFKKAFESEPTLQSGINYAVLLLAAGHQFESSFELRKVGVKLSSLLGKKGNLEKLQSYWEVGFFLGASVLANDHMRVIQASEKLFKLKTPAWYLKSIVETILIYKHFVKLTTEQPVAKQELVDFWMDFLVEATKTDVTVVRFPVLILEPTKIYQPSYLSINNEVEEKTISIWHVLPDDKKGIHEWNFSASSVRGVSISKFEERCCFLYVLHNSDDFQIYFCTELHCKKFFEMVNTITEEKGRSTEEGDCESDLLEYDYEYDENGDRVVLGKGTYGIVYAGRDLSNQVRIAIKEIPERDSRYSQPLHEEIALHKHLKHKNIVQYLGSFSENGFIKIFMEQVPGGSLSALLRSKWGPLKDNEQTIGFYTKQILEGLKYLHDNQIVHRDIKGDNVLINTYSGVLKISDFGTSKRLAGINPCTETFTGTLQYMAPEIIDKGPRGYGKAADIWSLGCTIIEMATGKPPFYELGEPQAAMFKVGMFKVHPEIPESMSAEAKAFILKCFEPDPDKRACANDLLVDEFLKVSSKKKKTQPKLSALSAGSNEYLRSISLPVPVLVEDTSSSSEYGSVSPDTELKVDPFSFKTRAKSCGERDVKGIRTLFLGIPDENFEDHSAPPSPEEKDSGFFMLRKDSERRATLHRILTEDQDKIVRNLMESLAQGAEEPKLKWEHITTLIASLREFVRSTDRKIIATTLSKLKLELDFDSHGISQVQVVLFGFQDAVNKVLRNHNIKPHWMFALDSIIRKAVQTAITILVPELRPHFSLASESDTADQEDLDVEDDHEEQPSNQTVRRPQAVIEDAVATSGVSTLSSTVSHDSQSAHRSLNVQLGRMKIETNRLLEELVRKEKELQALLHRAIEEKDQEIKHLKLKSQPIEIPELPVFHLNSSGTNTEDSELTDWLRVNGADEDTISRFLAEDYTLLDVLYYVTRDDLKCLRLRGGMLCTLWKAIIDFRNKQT

[5] = biological target: Calcium/calmodulin-dependent protein kinase type II subunit beta (Homo sapiens) (UniProt Q13554)
[6] = biological target: 5'-AMP-activated protein kinase catalytic subunit alpha-2 (Homo sapiens) (UniProt P54646)
[7] = biological target: Serine/threonine-protein kinase 38 (Homo sapiens) (UniProt Q15208)
[8] = biological target: T3, Serine/threonine-protein kinase VRK3 (Homo sapiens) (UniProt Q8IV63)
T3 sequence (whole entry): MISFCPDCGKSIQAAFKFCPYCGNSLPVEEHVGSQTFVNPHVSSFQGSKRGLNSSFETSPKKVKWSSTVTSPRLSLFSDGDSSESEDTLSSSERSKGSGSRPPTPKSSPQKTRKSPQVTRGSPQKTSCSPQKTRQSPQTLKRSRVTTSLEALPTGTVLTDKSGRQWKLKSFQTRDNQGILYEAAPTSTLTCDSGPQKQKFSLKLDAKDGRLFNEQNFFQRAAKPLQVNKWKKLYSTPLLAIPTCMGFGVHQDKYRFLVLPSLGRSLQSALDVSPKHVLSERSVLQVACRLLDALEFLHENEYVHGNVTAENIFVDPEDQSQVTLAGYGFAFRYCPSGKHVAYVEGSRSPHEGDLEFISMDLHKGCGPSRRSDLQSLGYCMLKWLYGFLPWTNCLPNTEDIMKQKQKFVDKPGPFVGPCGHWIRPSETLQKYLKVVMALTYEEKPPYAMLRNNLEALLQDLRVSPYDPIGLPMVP

[9] = biological target: Mitogen-activated protein kinase 3 (Homo sapiens, UniProt P27361)
[10] = biological target: Serine/threonine-protein kinase 25 (Homo sapiens) (UniProt O00506)
[11] = biological target: Glycogen synthase kinase-3 beta (Homo sapiens, UniProt P49841)
[12] = biological target: Serine/threonine-protein kinase RIO2 (Homo sapiens) (UniProt Q9BVS4)
[13] = biological target: Dual specificity mitogen-activated protein kinase kinase 2 (Homo sapiens, UniProt P36507)
[14] = biological target: Calcium/calmodulin-dependent protein kinase type II subunit gamma (Homo sapiens) (UniProt Q13555)
Sequence of Calcium/calmodulin-dependent protein kinase type II subunit gamma (Homo sapiens) (Q13555 whole entry): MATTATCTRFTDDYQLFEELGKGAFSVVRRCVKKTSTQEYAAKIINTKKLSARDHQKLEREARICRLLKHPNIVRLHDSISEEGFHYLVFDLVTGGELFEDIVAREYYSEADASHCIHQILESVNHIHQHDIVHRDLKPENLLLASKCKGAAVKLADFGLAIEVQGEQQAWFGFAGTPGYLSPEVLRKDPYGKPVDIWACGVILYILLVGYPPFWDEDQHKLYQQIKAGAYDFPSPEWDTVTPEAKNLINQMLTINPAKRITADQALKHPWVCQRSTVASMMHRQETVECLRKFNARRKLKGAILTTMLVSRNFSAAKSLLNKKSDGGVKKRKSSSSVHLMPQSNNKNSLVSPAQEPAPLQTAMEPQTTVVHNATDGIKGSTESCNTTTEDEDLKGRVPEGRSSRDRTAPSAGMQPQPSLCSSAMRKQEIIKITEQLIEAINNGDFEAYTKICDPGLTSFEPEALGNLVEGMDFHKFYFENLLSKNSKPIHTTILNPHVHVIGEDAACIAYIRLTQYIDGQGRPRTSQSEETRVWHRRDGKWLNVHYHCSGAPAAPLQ

Sequence of Mitogen-activated protein kinase 3 (P27361 whole entry): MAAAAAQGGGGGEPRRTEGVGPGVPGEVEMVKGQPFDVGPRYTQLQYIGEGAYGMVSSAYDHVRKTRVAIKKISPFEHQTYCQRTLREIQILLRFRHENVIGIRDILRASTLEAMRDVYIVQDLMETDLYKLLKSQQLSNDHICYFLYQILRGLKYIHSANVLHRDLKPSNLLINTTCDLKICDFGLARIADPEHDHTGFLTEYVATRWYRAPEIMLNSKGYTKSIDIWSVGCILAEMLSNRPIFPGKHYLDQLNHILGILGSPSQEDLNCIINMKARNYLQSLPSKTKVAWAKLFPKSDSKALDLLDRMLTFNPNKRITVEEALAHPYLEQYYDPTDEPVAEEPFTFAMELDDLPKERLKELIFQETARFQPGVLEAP
Sequence of Calcium/calmodulin-dependent protein kinase type II subunit beta (Homo sapiens) (Q13554 whole entry): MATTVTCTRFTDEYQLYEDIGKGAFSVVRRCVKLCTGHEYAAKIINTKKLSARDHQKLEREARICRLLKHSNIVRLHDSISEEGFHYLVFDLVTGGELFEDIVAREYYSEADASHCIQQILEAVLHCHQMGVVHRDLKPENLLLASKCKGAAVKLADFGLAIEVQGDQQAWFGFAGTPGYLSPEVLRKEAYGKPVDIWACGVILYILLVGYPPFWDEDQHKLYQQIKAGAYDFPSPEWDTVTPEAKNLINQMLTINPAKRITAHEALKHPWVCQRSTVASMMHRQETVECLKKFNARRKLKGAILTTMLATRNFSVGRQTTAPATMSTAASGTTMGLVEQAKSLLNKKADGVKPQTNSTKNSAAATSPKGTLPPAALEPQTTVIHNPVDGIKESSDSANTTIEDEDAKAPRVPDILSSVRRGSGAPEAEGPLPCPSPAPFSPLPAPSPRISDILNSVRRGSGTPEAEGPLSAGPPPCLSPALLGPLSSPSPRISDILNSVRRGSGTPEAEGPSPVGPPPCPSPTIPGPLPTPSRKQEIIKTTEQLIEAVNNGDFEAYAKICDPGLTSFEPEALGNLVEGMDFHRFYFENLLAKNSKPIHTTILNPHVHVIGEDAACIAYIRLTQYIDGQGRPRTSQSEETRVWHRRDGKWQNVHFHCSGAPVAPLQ
Sequence of Serine/threonine-protein kinase 38 (Homo sapiens) (Q15208 2-465 limits assumed): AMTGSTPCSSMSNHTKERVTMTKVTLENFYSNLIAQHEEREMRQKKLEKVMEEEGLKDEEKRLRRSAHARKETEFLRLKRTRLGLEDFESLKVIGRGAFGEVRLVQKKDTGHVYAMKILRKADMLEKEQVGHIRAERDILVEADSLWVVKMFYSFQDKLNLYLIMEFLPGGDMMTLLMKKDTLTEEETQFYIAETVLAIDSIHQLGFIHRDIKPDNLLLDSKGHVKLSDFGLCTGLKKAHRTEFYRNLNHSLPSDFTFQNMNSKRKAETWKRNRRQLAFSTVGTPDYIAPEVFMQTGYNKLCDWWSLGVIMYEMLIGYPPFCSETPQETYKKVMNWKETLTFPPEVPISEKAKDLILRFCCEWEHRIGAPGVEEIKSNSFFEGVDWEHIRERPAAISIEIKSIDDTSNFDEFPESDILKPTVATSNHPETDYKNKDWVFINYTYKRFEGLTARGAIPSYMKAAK
Sequence of Dual specificity mitogen-activated protein kinase kinase 2 (P36507 whole entry): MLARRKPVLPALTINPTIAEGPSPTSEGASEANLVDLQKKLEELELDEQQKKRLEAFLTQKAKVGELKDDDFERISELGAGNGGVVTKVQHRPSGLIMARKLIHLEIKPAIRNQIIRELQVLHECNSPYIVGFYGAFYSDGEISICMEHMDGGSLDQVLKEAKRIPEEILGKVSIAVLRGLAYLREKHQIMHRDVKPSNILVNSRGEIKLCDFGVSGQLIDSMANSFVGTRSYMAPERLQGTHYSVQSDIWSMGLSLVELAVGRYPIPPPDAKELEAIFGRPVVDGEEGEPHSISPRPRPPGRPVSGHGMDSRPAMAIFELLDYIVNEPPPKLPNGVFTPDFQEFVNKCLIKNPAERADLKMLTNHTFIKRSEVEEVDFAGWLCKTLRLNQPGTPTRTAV
Sequence of Ribosomal protein S6 kinase alpha-3 (Homo sapiens) (P51812 whole entry): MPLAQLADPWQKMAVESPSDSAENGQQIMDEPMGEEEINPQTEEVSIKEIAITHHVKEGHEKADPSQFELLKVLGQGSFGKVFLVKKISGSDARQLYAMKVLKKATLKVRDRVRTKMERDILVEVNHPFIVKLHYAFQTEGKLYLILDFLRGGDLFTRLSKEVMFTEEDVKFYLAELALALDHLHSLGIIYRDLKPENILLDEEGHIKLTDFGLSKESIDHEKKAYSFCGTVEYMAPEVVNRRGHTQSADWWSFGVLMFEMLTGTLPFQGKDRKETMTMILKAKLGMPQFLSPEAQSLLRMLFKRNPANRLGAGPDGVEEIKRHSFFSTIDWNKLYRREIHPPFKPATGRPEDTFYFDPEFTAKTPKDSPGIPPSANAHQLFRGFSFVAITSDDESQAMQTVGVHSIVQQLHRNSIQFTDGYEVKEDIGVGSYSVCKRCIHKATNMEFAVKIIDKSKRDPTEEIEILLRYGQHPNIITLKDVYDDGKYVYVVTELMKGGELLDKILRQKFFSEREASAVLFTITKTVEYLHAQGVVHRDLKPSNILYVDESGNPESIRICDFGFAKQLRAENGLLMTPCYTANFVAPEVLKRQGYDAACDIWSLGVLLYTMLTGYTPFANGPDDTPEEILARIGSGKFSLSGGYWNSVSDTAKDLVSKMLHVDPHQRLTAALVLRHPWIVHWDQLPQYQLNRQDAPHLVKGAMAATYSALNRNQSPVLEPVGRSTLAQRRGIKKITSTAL
Sequence of 5'-AMP-activated protein kinase catalytic subunit alpha-2 (Homo sapiens) (P54646 whole entry, looked up): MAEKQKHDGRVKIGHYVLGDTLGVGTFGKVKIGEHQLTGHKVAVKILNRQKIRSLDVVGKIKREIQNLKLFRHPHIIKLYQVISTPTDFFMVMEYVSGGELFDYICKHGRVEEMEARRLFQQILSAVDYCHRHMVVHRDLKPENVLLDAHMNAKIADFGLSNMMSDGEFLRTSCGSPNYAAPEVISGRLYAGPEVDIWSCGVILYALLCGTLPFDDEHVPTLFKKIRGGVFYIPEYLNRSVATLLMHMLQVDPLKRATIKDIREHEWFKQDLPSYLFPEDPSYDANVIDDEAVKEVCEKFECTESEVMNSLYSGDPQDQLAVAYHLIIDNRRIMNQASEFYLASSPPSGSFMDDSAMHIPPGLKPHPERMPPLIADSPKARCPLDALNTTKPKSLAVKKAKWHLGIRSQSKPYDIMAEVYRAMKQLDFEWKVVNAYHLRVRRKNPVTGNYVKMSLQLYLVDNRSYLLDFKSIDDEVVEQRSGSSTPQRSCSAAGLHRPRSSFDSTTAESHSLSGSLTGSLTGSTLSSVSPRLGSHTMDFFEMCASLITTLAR
Sequence of Serine/threonine-protein kinase RIO2 (Homo sapiens) (Q9BVS4 whole entry, looked up): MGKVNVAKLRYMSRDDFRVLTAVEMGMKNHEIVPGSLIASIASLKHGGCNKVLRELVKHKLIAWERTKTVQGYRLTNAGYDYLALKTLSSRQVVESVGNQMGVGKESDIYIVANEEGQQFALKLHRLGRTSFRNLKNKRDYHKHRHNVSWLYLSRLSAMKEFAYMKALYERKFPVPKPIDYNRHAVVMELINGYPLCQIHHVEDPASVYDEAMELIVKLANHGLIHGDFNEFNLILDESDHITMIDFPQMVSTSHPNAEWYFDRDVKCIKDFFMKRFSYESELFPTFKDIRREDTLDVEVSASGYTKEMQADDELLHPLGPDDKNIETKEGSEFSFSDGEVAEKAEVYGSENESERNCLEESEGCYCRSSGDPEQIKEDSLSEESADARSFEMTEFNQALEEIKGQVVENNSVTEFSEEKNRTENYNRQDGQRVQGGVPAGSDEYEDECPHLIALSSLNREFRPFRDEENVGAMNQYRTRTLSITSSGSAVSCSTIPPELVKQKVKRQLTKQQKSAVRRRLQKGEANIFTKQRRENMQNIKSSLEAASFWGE
Sequence of Serine/threonine-protein kinase 25 (Homo sapiens) (O00506 whole entry, looked up): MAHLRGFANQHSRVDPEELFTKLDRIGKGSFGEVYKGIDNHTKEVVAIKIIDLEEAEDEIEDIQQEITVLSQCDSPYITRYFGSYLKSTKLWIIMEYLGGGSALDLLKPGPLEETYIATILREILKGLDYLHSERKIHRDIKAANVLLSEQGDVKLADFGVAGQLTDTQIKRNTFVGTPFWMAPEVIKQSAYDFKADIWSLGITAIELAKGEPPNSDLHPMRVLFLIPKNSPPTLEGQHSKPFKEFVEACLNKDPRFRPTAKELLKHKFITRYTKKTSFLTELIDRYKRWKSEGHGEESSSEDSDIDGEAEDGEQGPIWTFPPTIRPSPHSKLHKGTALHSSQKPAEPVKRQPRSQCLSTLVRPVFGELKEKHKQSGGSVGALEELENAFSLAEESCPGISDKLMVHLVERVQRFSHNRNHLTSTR

| SMILES | ΔTm [1] [°C] | ΔTm [2] [°C] | ΔTm [3] [°C] | ΔTm [4] [°C] | ΔTm [5] [°C] | ΔTm [6] [°C] | ΔTm [7] [°C] | ΔTm [8] [°C] | ΔTm [9] [°C] | ΔTm [10] [°C] | ΔTm [11] [°C] | ΔTm [12] [°C] | ΔTm [13] [°C] | ΔTm [14] [°C] |
| --- | --- | --- | --- | --- | --- | --- | --- | --- | --- | --- | --- | --- | --- | --- |
| CN(C)c1ccc(CC2C(=O)Nc3ccccc32)cc1 (stereo not drawn) | 0.9 | -0.5 | 0.7 | 1.1 | 0.4 | 0.3 | 1.5 | 0.1 | 0.4 | 2.4 | 1.2 | 0.9 | 1.4 | 0.2 |
| O=C1Nc2ccc(I)cc2/C1=C1/Nc2ccccc2/C1=N\O | 3.3 | 1.4 | 4.5 | 5.7 | 1.2 | 6.8 | 2 | 0.4 | 2.1 | 3.2 | 8.8 | 2.5 | 6.4 | 5.4 |
| Nc1cc2ncnc(Nc3cccc(Br)c3)c2cc1N | 0.5 | 3.3 | 3.6 | 0.4 | -0.4 | -0.9 | 0.1 | 0 | 0.4 | 2.5 | 1.2 | 3.4 | 1.2 | -0.1 |
| O=C1Cc2c([nH]c3ccc([N+](=O)[O-])cc23)-c2ccccc2N1 | 0.2 | 2.2 | 2.5 | 0.9 | 0.3 | 0.7 | 1.8 | 0 | 1.1 | 2.4 | 11.9 | 1.3 | 0.3 | -0.1 |
| O=C1Nc2ccc(I)cc2/C1=C\c1cc(Br)c(O)c(Br)c1 | 5.1 | -2.2 | -0.4 | 1.7 | -0.1 | 1 | 0.5 | -1.6 | 0.5 | 0.6 | 3.6 | -0.4 | 0.2 | -0.3 |
| O=c1cc(N2CCOCC2)oc2c(-c3ccccc3)cccc12 | 0.2 | 1.3 | -0.3 | 0.3 | 0.5 | -0.9 | 0.6 | 0.6 | -0.6 | 0 | 1.1 | 1 | -0.3 | 0.3 |
| CN(C)CC1CCn2c(c(C3=C(c4c[nH]c5ccccc45)C(=O)NC3=O)c3ccccc32)C1 (stereo not drawn) | 0.8 | 1 | 0 | 0 | 1 | -0.5 | 0.3 | 0.6 | -0.2 | 0.4 | 9.2 | 0.7 | -0.1 | 1.3 |

— ChEMBL document CHEMBL1145498, “A systematic interaction map of validated kinase inhibitors with Ser/Thr kinases” (Proc Natl Acad Sci U S A, 2007)
